Assay results reported in patent US20240190854A1, “PYRIMIDINE OR PYRIDINE DERIVATIVES USEFUL AS HCN2 MODULATORS” (King's College London, priority 2021, published 2024).
Where a name gives a salt, the structure may show the parent alone.

Key:
[1] = target: hERG channel (Homo sapiens (Human), UniProt Q12809); assay: hERG assay using IonWorks Quattro; type: cell-based; settings: IonWorks protocol; read-out: IW hERG IC50
Procedure: Example 127A, Using IonWorks Quattro
Solutions for recording hERG currents were:
This was followed by a […] step of is to −30 mV to evoke the hERG tail current. This sequence was repeated 5 times at a frequency of 0.25 Hz (see FIG. 3). Currents were measured from the tail step at the 5th pulse and referenced to the holding current. Compounds were then incubated for 6-7 minutes prior to a second measurement of the hERG signal using an identical pulse train.

[2] = target: hNav1.5 (Homo sapiens (Human), UniProt Q14524)
[3] = target: HCN4 (Homo sapiens (Human), UniProt Q9Y3Q4); assay: HCN4 current assay using PatchXpress 7000A; type: cell-based; settings: PatchXpress protocol; read-out: PX HCN4 IC50
Procedure: (§1) Example 126A, Using PatchXpress 7000A
(§2) Solutions for recording HCN currents were:
(§3) The peak inward current measured at the end of the pulse to −110 mV (HCN1 and HCN2) or −130 mV (HCN4) was measured and any leak current subtracted to calculate the HCN current. The HCN current amplitude was measured after each control or compound addition and normalized to the control amplitude (Control A).
(§4) All experiments were performed at room temperature (approximately 22° C.).
(§5) Each test compound concentration was applied to the cell for seven (7) minutes, at which point the next cumulative concentration was applied.

[4] = target: MDR1 (P-glycoprotein) (Homo sapiens (Human), UniProt P08183); assay: in vitro; settings: dog, MDCK-MDR1, pH 7.4
Procedure: Test compounds were added (10 μM, 0.1% DMSO final, n=2) to donor compartments of the Transwell plate assembly in assay buffer (Hanks balanced salt solution supplemented with 25 mM HEPES, adjusted to pH 7.4) for both apical to basolateral (A>B) and basolateral to apical (B>A) measurements. A parallel series of incubations were performed in the presence of the transporter inhibitor elacridar (5 μM) which was added to both compartments in the transwell plate. Incubations were performed at 37° C., with samples removed from both donor and acceptor chambers at T=0 and 1 hour for recovery assessment and compound analysed by mass spectrometry (LC-MS/MS), including an analytical internal standard.
Apparent permeability (Papp) values were determined from the relationship:
Where V is the volume of each Transwell compartment (apical 125 μL, basolateral 600 μL), and concentrations are the relative MS responses for compound (normalized to internal standard) in the donor chamber before incubation and acceptor chamber at the end of the incubation.
Area=area of cells exposed for drug transfer (0.33 cm2).
Efflux ratios (Papp B>A/Papp A>B) were calculated for each compound from the mean Papp values in each direction. […] The efflux ratios were also calculated in the same way from the runs carried out in the presence of the inhibitor. The net flux is the ratio of the efflux in the absence of inhibitor to that in the presence of inhibitor.
Lucifer Yellow (LY) was added to the apical buffer in all wells to assess viability of the cell layer.
Compound recovery from the wells was determined from MS responses (normalized to internal standard) in donor and acceptor chambers at the end of incubation compared to response in the donor chamber pre-incubation.

[5] = target: HCN2 (Homo sapiens (Human), UniProt Q9UL51); assay: HCN2 current assay using PatchXpress 7000A; type: cell-based; settings: PatchXpress protocol; read-out: PX HCN2 IC50
Procedure: as §1, §2
The membrane voltage was then stepped back to −30 mV for a further 8 seconds.
as §3, §4, §5

MDR1 (P-glycoprotein), sequence (P08183 whole entry): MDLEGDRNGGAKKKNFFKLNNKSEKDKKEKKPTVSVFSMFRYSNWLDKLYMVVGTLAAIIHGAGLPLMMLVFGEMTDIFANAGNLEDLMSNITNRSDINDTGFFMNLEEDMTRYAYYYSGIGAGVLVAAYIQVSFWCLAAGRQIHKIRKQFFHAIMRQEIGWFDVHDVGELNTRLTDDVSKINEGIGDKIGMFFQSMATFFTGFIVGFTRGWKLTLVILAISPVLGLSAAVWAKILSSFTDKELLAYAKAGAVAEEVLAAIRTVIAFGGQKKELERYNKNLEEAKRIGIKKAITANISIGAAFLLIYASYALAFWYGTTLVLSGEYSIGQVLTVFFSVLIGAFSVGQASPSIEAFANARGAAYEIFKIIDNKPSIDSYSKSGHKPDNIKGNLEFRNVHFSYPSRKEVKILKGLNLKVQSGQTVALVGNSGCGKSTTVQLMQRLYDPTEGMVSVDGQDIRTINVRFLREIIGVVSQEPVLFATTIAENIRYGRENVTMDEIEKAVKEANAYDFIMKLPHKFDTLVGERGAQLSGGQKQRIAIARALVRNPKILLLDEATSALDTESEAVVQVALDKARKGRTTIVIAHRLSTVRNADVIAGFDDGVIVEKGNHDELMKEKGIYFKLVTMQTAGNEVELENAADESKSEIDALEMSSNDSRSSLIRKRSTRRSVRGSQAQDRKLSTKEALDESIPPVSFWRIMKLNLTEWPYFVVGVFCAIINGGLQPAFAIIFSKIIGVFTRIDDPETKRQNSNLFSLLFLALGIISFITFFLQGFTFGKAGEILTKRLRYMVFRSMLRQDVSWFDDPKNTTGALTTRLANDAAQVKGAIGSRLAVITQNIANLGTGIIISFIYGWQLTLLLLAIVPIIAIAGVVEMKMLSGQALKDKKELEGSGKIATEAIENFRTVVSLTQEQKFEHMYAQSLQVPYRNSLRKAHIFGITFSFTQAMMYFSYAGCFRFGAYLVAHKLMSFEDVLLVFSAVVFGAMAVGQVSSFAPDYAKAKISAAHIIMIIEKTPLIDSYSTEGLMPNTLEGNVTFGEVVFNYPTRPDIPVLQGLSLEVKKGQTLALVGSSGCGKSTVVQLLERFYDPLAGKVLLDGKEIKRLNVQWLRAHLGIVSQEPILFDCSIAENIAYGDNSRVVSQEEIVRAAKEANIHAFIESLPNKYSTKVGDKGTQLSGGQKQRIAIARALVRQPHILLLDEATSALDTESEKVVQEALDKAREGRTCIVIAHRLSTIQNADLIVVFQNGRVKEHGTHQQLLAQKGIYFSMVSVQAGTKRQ
hNav1.5, sequence (Q14524 whole entry): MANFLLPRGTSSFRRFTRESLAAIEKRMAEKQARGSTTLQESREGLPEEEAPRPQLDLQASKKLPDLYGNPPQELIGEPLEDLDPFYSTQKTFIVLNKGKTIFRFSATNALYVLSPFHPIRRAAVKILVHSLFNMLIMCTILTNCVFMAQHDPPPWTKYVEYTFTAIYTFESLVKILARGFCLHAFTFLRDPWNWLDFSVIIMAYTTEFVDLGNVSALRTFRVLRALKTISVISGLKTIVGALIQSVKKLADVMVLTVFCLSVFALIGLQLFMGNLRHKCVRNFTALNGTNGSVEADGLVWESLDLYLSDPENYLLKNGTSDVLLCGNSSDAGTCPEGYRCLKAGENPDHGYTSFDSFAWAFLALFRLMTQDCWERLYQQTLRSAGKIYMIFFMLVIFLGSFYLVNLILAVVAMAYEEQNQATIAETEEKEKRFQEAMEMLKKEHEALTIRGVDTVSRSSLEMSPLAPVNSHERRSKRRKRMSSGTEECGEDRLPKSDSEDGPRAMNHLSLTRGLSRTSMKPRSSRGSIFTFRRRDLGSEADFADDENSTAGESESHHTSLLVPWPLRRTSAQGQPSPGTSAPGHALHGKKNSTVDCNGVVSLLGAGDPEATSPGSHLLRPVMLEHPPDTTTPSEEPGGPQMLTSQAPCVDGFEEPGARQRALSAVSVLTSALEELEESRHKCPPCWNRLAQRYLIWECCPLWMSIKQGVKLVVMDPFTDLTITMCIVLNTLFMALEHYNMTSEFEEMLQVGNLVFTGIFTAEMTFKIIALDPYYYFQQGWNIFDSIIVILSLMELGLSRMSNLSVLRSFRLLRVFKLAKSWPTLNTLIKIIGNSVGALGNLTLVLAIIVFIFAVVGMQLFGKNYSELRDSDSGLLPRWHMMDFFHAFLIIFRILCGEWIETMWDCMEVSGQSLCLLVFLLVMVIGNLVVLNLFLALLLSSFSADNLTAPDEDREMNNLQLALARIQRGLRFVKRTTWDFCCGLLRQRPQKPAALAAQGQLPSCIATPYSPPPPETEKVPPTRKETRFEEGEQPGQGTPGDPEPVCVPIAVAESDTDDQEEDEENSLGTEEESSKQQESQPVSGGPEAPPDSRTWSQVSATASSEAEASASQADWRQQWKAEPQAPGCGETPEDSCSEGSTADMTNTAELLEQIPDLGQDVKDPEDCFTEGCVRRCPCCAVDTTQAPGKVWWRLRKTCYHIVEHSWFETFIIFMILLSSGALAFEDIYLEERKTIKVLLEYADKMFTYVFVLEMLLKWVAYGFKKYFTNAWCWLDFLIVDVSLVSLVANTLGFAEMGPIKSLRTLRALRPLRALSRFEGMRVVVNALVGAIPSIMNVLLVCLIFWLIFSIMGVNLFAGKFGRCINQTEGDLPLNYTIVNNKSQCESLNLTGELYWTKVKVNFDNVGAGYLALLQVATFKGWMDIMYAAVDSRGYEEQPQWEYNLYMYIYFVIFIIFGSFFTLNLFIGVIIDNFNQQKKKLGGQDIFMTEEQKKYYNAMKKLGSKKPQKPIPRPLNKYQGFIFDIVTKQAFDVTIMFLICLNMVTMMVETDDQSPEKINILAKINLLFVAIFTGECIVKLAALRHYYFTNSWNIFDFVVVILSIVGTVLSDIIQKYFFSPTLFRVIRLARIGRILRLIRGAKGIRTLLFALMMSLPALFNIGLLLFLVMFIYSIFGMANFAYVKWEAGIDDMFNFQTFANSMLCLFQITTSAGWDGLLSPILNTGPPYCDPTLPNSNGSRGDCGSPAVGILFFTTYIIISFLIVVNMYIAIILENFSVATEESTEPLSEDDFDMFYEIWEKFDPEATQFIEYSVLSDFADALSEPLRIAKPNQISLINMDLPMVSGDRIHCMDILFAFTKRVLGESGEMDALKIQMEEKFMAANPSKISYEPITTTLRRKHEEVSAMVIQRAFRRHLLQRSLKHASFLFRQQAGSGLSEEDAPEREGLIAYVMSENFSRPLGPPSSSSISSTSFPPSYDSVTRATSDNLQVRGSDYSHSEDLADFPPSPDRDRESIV
HCN2, sequence (Q9UL51 whole entry): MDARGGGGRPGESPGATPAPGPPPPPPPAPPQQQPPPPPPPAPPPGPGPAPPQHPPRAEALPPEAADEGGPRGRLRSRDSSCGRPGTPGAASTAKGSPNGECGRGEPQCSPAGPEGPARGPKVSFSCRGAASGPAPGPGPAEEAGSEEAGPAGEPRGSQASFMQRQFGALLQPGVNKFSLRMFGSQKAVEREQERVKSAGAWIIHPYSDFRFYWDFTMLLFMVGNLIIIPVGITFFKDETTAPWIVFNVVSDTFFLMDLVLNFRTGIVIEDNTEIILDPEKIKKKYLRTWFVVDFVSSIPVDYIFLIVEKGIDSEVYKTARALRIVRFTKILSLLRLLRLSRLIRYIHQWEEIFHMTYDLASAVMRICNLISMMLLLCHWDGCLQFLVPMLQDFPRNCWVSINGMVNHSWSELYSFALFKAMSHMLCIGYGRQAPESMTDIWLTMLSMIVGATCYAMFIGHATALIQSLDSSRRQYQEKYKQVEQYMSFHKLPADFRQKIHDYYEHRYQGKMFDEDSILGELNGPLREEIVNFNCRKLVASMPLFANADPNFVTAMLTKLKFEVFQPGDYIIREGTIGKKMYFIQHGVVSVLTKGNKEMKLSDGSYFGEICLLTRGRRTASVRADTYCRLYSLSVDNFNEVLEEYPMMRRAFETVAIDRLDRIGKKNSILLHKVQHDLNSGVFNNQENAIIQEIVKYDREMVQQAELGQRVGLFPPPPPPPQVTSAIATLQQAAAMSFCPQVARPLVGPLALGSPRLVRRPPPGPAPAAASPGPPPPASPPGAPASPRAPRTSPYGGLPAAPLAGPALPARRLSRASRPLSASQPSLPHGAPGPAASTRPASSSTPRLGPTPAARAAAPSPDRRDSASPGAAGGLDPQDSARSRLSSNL

SMILES | IC50 [3] [µM] | IC50 [5] [µM] | IC50 [1] [µM] | IC50 [2] [µM] | efflux ratio at 1 h, 10 μM [4]
N[C@@H](Cc1cccc(CCO)n1)c1ccccc1-c1noc2ccccc12 [Example 100, (S)-1-[2-(Benzo[d]isoxazol-3-yl)phenyl]-2-[6-(2-hydroxyethyl)pyridine-2-yl]ethan-1-amine hydrochloride] | > 30 | 2.3 | 12.8 | 2.8 | 8.7
N[C@@H](Cc1cccc(N2CCCC2)n1)c1ccccc1-c1noc2ccccc12 [Example 119, (S)-1-[2-(Benzo[d]isoxazol-3-yl)phenyl]-2-[6-(pyrrolidin-1-yl)pyridine-2-yl]ethan-1-amine hydrochloride] | 2.1 | 0.8 | 1.3 | 3.3 | –
CC[C@@H](c1ccccn1)[C@H](N)c1ccccc1-c1noc2ccccc12 [Example 46, (1S,2R)-1-[2-(benzo[d]isoxazol-3-yl)phenyl]-2-(pyridin-2-yl)butan-1-amine hydrochloride] | > 30 | 3 | 8.2 | 1.3 | –
N#Cc1ccc2c(-c3ccccc3[C@@H](N)Cc3cccc(OCCO)n3)noc2c1 [Example 99, (S)-1-[2-(6-Cyanobenzo[d]isoxazol-3-yl)phenyl]-2-[6-(2-hydroxyethoxyl)pyridine-2-yl]ethan-1-amine hydrochloride] | > 30 | 2.4 | 2.1 | 18.5 | 78.5
N[C@@H](Cc1ccccn1)c1c(F)cccc1-c1noc2ccccc12 [Example 111, (S)-1-[2-(Benzo[d]isoxazol-3-yl)-6-fluorophenyl]-2-(pyridin-2-yl)ethan-1-amine hydrochloride] | > 30 | 1.8 | 7.4 | 27.9 | 1
Cc1cccc(C[C@H](N)c2ccccc2-c2nn(C)c3ccccc23)n1 [Example 61, (S)-1-[2-(1-Methyl-1H-indazole-3-yl)phenyl]-2-(6-methylpyridine-2-yl)ethan-1-amine hydrochloride] | > 30 | 3.5 | 0.46 | 6.7 | –
COC(=O)Nc1cccc(C[C@H](N)c2ccccc2-c2noc3ccccc23)n1 [Example 124, Methyl (S)-(6-{2-Amino-2-[2-(benzo[d]isoxazol-3-yl)phenyl]ethyl}pyridine-2-yl)carbamate hydrochloride] | > 30 | 2.1 | 2.3 | 1.3 | –
CN(C)C(=O)CCc1cccc(C[C@H](N)c2ccccc2-c2noc3ccccc23)n1 [Example 109, (S)-3-(6-{2-Amino-2-[2-(benzo[d]isoxazol-3-yl)phenyl]ethyl}pyridine-2-yl)-N,N-dimethylpropanamide hydrochloride] | > 30 | 2.4 | 4.3 | 3.2 | –
N[C@@H](Cc1nc(CCO)ccc1F)c1ccccc1-c1noc2ccccc12 [Example 77, (S)-2-(6-{2-Amino-2-(2-benzo[d]isoxazol-3-yl)phenyl]ethyl}-5-fluoropyridin-2-yl)ethan-1-ol hydrochloride] | 10.4 | 0.9 | > 33 | 6.5 | –
N[C@@H](Cc1ncccn1)c1ccccc1-c1noc2ccccc12 [Example 56, (S)-1-[2-(Benzo[d]isoxazol-3-yl)phenyl]-2-(pyrimidine-2-yl)ethan-1-amine] | 30 | 1.2 | 14.4 | 7 | 2.5
N[C@@H](Cc1cc(Br)ccn1)c1ccccc1-c1noc2ccccc12 [Example 117, (S)-1-[2-(Benzo[d]isoxazol-3-yl)phenyl]-2-(4-bromopyridine-2-yl)ethan-1-amine hydrochloride)] | 12.2 | 1.4 | 2.2 | 2.7 | –
Cc1cccnc1C[C@H](N)c1ccccc1-c1noc2ccccc12 [Example 47, (S)-1-[2-(Benzo[d]isoxazol-3-yl)phenyl]-2-(3-methylpyridine-2-yl)ethan-1-amine hydrochloride] | > 30 | 0.6 | 2.8 | 5.8 | –
COCCNc1cccc(C[C@H](N)c2ccccc2-c2noc3ccccc23)n1 [Example 52, (S)-6-{2-Amino-2-[2-(benzo[d]isoxazol-3-yl)phenyl]ethyl}-N-(2-methoxyethyl)pyridin-2-amine hydrochloride] | 6 | 1.6 | 1.2 | 1.6 | –
Cc1cccc(C[C@H](N)c2c(F)cccc2-c2noc3ccccc23)n1 [Example 112, (S)-1-[2-(Benzo[d]isoxazol-3-yl)-6-fluorophenyl]-2-(6-methylpyridin-2-yl)ethan-1-amine hydrochloride] | 4.2 | 2 | 10.2 | 24.2 | –
CNc1cccc(C[C@H](N)c2ccccc2-c2noc3cc(C#N)ccc23)n1 [Example 97, (S)-1-[2-(6-Cyanobenzo[d]isoxazol-3-yl)phenyl]-2-(6-methylaminopyridine-2-yl)ethan-1-amine dihydrochloride] | 13.3 | 2.6 | 0.54 | 8.4 | 12.2
Cc1ccc(-c2noc3ccccc23)c([C@@H](N)Cc2ccccn2)c1 [Example 36, (S)-1-[2-(Benzo[d]isoxazol-3-yl)-5-methylphenyl]-2-(pyridine-2-yl)ethan-1-amine hydrochloride] | > 30 | 1.2 | 5 | 5.6 | 0.8
COCc1ccc2c(-c3ccccc3[C@@H](N)Cc3ccccn3)noc2c1 [Example 39, (S)-1-[2-(6-Methoxymethylbenzo[d]isoxazol-3-yl)phenyl]-2-(pyridine-2-yl)ethan-1-amine] | > 30 | 4 | 7.6 | 27.3 | 2.7

Further lines, with some results ahead:

IC50 [3] [µM] | IC50 [5] [µM] | SMILES | IC50 [1] [µM] | IC50 [2] [µM] | efflux ratio at 1 h, 10 μM [4]
7.1 | 2.9 | Cn1cc(-c2cccc(C[C@H](N)c3ccccc3-c3noc4ccccc34)n2)cn1 [Example 90, (S)-1-[2-(Benzo[d]isoxazol-3-yl)phenyl]-2-[6-(1-methyl-1H-pyrazol-4-yl)pyridine-2-yl]ethan-1-amine hydrochloride] | 4.1 | 10.6 | –
> 30 | 3.1 | CN(C)C(=O)c1cccc(C[C@H](N)c2ccccc2-c2noc3ccccc23)n1 [Example 89, (S)-6-{2-Amino-2-[2-(Benzo[d]isoxazol-3-yl)phenyl]ethyl-N,N-dimethylpyridine-2-carboxamide hydrochloride] | 19.1 | 5.8 | 24.6
7.2 | 1.2 | N[C@@H](Cc1cccc(Br)n1)c1ccccc1-c1noc2ccccc12 [Example 44, (S)-1-[2-(benzo[d]isoxazol-3-yl)phenyl]-2-(6-bromopyridine-2-yl)ethan-1-amine] | 12.8 | 3.7 | –
> 30 | 1.9 | Cc1ccc(C[C@H](N)c2ccccc2-c2noc3ccccc23)nc1 [Example 92, (S)-1-[2-(Benzo[d]isoxazol-3-yl)phenyl]-2-(5-methylpyridine-2-yl)ethan-1-amine hydrochloride] | 6.4 | 1.4 | –
13.1 | 0.7 | CCc1cccc(C[C@H](N)c2ccccc2-c2noc3ccccc23)n1 [Example 101, (S)-1-[2-(Benzo[d]isoxazol-3-yl)phenyl]-2-(6-ethylpyridine-2-yl)ethan-1-amine hydrochloride] | 2.8 | 1.6 | –
9.9 | 1 | N[C@@H](Cc1cccc(-c2cn[nH]c2)n1)c1ccccc1-c1noc2ccccc12 [Example 91, (S)-2-[6-(1H-Pyrazol-4-yl)pyridine-2-yl])-1-[2-(benzo[d]isoxazol-3-yl)phenyl]ethan-1-amine hydrochloride] | 1.8 | 3.4 | 23.1
19.2 | 0.7 | N[C@@H](Cc1cccc(C(F)(F)F)n1)c1ccccc1-c1noc2ccccc12 [Example 62, (S)-1-[2-(Benzo[d]isoxazol-3-yl)phenyl]-2-(6-trifluoromethylpyridin-2-yl)ethan-1-amine hydrochloride] | 3.2 | 3.8 | –
5.2 | 1.7 | N[C@@H](Cc1cccc(-c2ncco2)n1)c1ccccc1-c1noc2ccccc12 [Example 118, (S)-1-[2-(Benzo[d]isoxazol-3-yl)phenyl]-2-[6-(oxazol-2-yl)pyridine-2-yl]ethan-1-amine hydrochloride] | 3.1 | 7.8 | –
